# According to PubChem BioAssay (NCI):
#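 Assay format: 96-well plates, 48-hour exposure. TGI: total growth inhibition.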
# Key:
# Experiment in all cases: NCI-60 cell line screen, 48 h
# 786-0 renal = test system: 786-0 renal
# A498 renal = test system: A498 renal
# A549 NSCLC = test system: A549 NSCLC
# ACHN renal = test system: ACHN renal
# BT-549 breast = test system: BT-549 breast
# CAKI-1 renal = test system: CAKI-1 renal
# CCRF-CEM leukemia = test system: CCRF-CEM leukemia
# COLO 205 colon = test system: COLO 205 colon
# DU-145 prostate = test system: DU-145 prostate
# EKVX NSCLC = test system: EKVX NSCLC
# HCC-2998 colon = test system: HCC-2998 colon
# HCT-116 colon = test system: HCT-116 colon
# HCT-15 colon = test system: HCT-15 colon
# HL-60(TB) leukemia = test system: HL-60(TB) leukemia
# HOP-62 NSCLC = test system: HOP-62 NSCLC
# HOP-92 NSCLC = test system: HOP-92 NSCLC
# HS 578T breast = test system: HS 578T breast
# HT29 colon = test system: HT29 colon
# IGROV1 ovarian = test system: IGROV1 ovarian
# K-562 leukemia = test system: K-562 leukemia
# KM12 colon = test system: KM12 colon
# LOX IMVI melanoma = test system: LOX IMVI melanoma
# M14 melanoma = test system: M14 melanoma
# MALME-3M melanoma = test system: MALME-3M melanoma
# MCF7 breast = test system: MCF7 breast
# MDA-MB-231 breast = test system: MDA-MB-231 breast
# MDA-MB-435 = test system: MDA-MB-435
# MDA-N = test system: MDA-N
# MOLT-4 leukemia = test system: MOLT-4 leukemia
# NCI-H226 lung = test system: NCI-H226 lung
# NCI-H23 lung = test system: NCI-H23 lung
# NCI-H460 lung = test system: NCI-H460 lung
# NCI-H522 lung = test system: NCI-H522 lung
# NCI/ADR-RES ovarian = test system: NCI/ADR-RES ovarian
# OVCAR-3 ovarian = test system: OVCAR-3 ovarian
# OVCAR-4 ovarian = test system: OVCAR-4 ovarian
# OVCAR-5 ovarian = test system: OVCAR-5 ovarian
# OVCAR-8 ovarian = test system: OVCAR-8 ovarian
# PC-3 prostate = test system: PC-3 prostate
# RPMI-8226 leukemia = test system: RPMI-8226 leukemia
# RXF 393 renal = test system: RXF 393 renal
# SF-268 CNS = test system: SF-268 CNS
# SF-295 CNS = test system: SF-295 CNS
# SF-539 CNS = test system: SF-539 CNS
# SK-MEL-2 melanoma = test system: SK-MEL-2 melanoma
# SK-MEL-28 melanoma = test system: SK-MEL-28 melanoma
# SK-MEL-5 melanoma = test system: SK-MEL-5 melanoma
# SK-OV-3 ovarian = test system: SK-OV-3 ovarian
# SN12C renal = test system: SN12C renal
# SNB-19 CNS = test system: SNB-19 CNS
# SNB-75 CNS = test system: SNB-75 CNS
# SW-620 colon = test system: SW-620 colon
# T-47D breast = test system: T-47D breast
# TK-10 renal = test system: TK-10 renal
# U251 CNS = test system: U251 CNS
# UACC-257 melanoma = test system: UACC-257 melanoma
# UACC-62 melanoma = test system: UACC-62 melanoma
# UO-31 renal = test system: UO-31 renal
smiles,measurement,setting,value
C=CS(=O)(=O)c1c2cc(OC)ccc2nc2ccc(OC)cc12,TGI,786-0 renal,7.82 µM
same,TGI,A498 renal,27.7 µM
same,TGI,A549 NSCLC,> 47.1 µM
same,TGI,ACHN renal,24.5 µM
same,TGI,BT-549 breast,22.4 µM
same,TGI,CAKI-1 renal,14.9 µM
same,TGI,CCRF-CEM leukemia,> 23.4 µM
same,TGI,COLO 205 colon,> 42.3 µM
same,TGI,DU-145 prostate,19.8 µM
same,TGI,EKVX NSCLC,21.1 µM
same,TGI,HCC-2998 colon,24.8 µM
same,TGI,HCT-116 colon,5.02 µM
same,TGI,HCT-15 colon,> 33.9 µM
same,TGI,HL-60(TB) leukemia,> 100 µM
same,TGI,HOP-62 NSCLC,32.8 µM
same,TGI,HOP-92 NSCLC,> 51.1 µM
same,TGI,HS 578T breast,11.9 µM
same,TGI,HT29 colon,10.7 µM
same,TGI,IGROV1 ovarian,12.5 µM
same,TGI,K-562 leukemia,> 23.4 µM
same,TGI,KM12 colon,28.8 µM
same,TGI,LOX IMVI melanoma,7.16 µM
same,TGI,M14 melanoma,> 49.7 µM
same,TGI,MALME-3M melanoma,4.89 µM
same,TGI,MCF7 breast,> 25.7 µM
same,TGI,MDA-MB-231 breast,50.7 µM
same,TGI,MDA-MB-435,22.7 µM
same,TGI,MDA-N,11.3 µM
same,TGI,MOLT-4 leukemia,> 100 µM
same,TGI,NCI-H226 lung,35.1 µM
same,TGI,NCI-H23 lung,28.2 µM
same,TGI,NCI-H460 lung,> 44.3 µM
same,TGI,NCI-H522 lung,3.74 µM
same,TGI,NCI/ADR-RES ovarian,76.2 µM
same,TGI,OVCAR-3 ovarian,15.8 µM
same,TGI,OVCAR-4 ovarian,30 µM
same,TGI,OVCAR-5 ovarian,> 36.9 µM
same,TGI,OVCAR-8 ovarian,15.4 µM
same,TGI,PC-3 prostate,23.3 µM
same,TGI,RPMI-8226 leukemia,7.28 µM
same,TGI,RXF 393 renal,18.4 µM
same,TGI,SF-268 CNS,33.4 µM
same,TGI,SF-295 CNS,32.3 µM
same,TGI,SF-539 CNS,> 21.2 µM
same,TGI,SK-MEL-2 melanoma,51.3 µM
same,TGI,SK-MEL-28 melanoma,45.6 µM
same,TGI,SK-MEL-5 melanoma,27 µM
same,TGI,SK-OV-3 ovarian,33.1 µM
same,TGI,SN12C renal,8.21 µM
same,TGI,SNB-19 CNS,45.1 µM
same,TGI,SNB-75 CNS,26.3 µM
same,TGI,SW-620 colon,> 20.7 µM
same,TGI,T-47D breast,35.5 µM
same,TGI,TK-10 renal,23.5 µM
same,TGI,U251 CNS,> 52.6 µM
same,TGI,UACC-257 melanoma,24 µM
same,TGI,UACC-62 melanoma,31.3 µM
same,TGI,UO-31 renal,> 27.4 µM
CCCCCc1cc2cc3c(c(O)c2c(=O)[nH]1)C1(CC3)C(O)=c2c(=O)c3c(=O)cc(OC)c(=O)c=3c(=O)c2=C1O (stereo not given),TGI,786-0 renal,2.91 µM
same,TGI,A498 renal,5.26 µM
same,TGI,A549 NSCLC,6.06 µM
same,TGI,ACHN renal,2.18 µM
same,TGI,BT-549 breast,3.6 µM
same,TGI,CAKI-1 renal,1.8 µM
same,TGI,CCRF-CEM leukemia,0.884 µM
same,TGI,COLO 205 colon,0.449 µM
same,TGI,DU-145 prostate,3.46 µM
same,TGI,EKVX NSCLC,3.36 µM
same,TGI,HCC-2998 colon,3.92 µM
same,TGI,HCT-116 colon,2.8 µM
same,TGI,HCT-15 colon,2.24 µM
same,TGI,HL-60(TB) leukemia,1.41 µM
same,TGI,HOP-62 NSCLC,12.8 µM
same,TGI,HOP-92 NSCLC,1.25 µM
same,TGI,HS 578T breast,15.3 µM
same,TGI,HT29 colon,2.9 µM
same,TGI,IGROV1 ovarian,4.4 µM
same,TGI,K-562 leukemia,2.29 µM
same,TGI,KM12 colon,5.4 µM
same,TGI,LOX IMVI melanoma,2.65 µM
same,TGI,M14 melanoma,3.22 µM
same,TGI,MALME-3M melanoma,2.54 µM
same,TGI,MCF7 breast,2.23 µM
same,TGI,MDA-MB-231 breast,2.16 µM
same,TGI,MDA-MB-435,3.93 µM
same,TGI,MDA-N,3.71 µM
same,TGI,MOLT-4 leukemia,4.48 µM
same,TGI,NCI-H226 lung,4.58 µM
same,TGI,NCI-H23 lung,2.77 µM
same,TGI,NCI-H460 lung,3.35 µM
same,TGI,NCI-H522 lung,1.69 µM
same,TGI,NCI/ADR-RES ovarian,7.35 µM
same,TGI,OVCAR-3 ovarian,1.93 µM
same,TGI,OVCAR-4 ovarian,3.02 µM
same,TGI,OVCAR-5 ovarian,5.86 µM
same,TGI,OVCAR-8 ovarian,3.26 µM
same,TGI,PC-3 prostate,2.24 µM
same,TGI,RPMI-8226 leukemia,2.42 µM
same,TGI,RXF 393 renal,3.55 µM
same,TGI,SF-268 CNS,3.56 µM
same,TGI,SF-295 CNS,18.7 µM
same,TGI,SK-MEL-2 melanoma,3.3 µM
same,TGI,SK-MEL-28 melanoma,4.26 µM
same,TGI,SK-MEL-5 melanoma,2.22 µM
same,TGI,SK-OV-3 ovarian,9.96 µM
same,TGI,SN12C renal,3.42 µM
same,TGI,SNB-19 CNS,3.74 µM
same,TGI,SNB-75 CNS,4.68 µM
same,TGI,SW-620 colon,3.31 µM
same,TGI,T-47D breast,3.58 µM
same,TGI,U251 CNS,2.75 µM
same,TGI,UACC-257 melanoma,2.14 µM
same,TGI,UACC-62 melanoma,4.82 µM
same,TGI,UO-31 renal,2.38 µM
Clc1ccc(Nc2nn3c(CCCCCCCCc4nnc5sc(Nc6ccc(Cl)cc6)nn45)nnc3s2)cc1,TGI,786-0 renal,> 100 µM
same,TGI,A498 renal,> 100 µM
same,TGI,A549 NSCLC,> 100 µM
same,TGI,ACHN renal,> 100 µM
same,TGI,BT-549 breast,> 100 µM
same,TGI,CAKI-1 renal,> 100 µM
same,TGI,CCRF-CEM leukemia,> 100 µM
same,TGI,COLO 205 colon,> 100 µM
same,TGI,DU-145 prostate,> 100 µM
same,TGI,EKVX NSCLC,> 100 µM
same,TGI,HCC-2998 colon,> 100 µM
same,TGI,HCT-116 colon,> 100 µM
same,TGI,HCT-15 colon,> 100 µM
same,TGI,HOP-62 NSCLC,> 100 µM
same,TGI,HOP-92 NSCLC,> 100 µM
same,TGI,HS 578T breast,> 100 µM
same,TGI,HT29 colon,> 100 µM
same,TGI,K-562 leukemia,> 100 µM
same,TGI,KM12 colon,> 100 µM
same,TGI,LOX IMVI melanoma,> 100 µM
same,TGI,M14 melanoma,> 100 µM
same,TGI,MALME-3M melanoma,> 100 µM
same,TGI,MCF7 breast,> 100 µM
same,TGI,MDA-MB-231 breast,> 100 µM
same,TGI,MDA-MB-435,> 100 µM
same,TGI,MDA-N,> 100 µM
same,TGI,MOLT-4 leukemia,> 100 µM
same,TGI,NCI-H226 lung,> 100 µM
same,TGI,NCI-H23 lung,> 100 µM
same,TGI,NCI-H460 lung,> 100 µM
same,TGI,NCI-H522 lung,> 100 µM
same,TGI,NCI/ADR-RES ovarian,> 100 µM
same,TGI,OVCAR-3 ovarian,> 100 µM
same,TGI,OVCAR-4 ovarian,> 100 µM
same,TGI,OVCAR-5 ovarian,> 100 µM
same,TGI,OVCAR-8 ovarian,> 100 µM
same,TGI,PC-3 prostate,> 100 µM
same,TGI,RPMI-8226 leukemia,> 100 µM
same,TGI,RXF 393 renal,> 100 µM
same,TGI,SF-268 CNS,> 100 µM
same,TGI,SF-295 CNS,> 100 µM
same,TGI,SF-539 CNS,> 100 µM
same,TGI,SK-MEL-2 melanoma,> 100 µM
same,TGI,SK-MEL-28 melanoma,> 100 µM
same,TGI,SK-MEL-5 melanoma,> 100 µM
same,TGI,SK-OV-3 ovarian,> 100 µM
same,TGI,SN12C renal,> 100 µM
same,TGI,SNB-19 CNS,80.4 µM
same,TGI,SNB-75 CNS,62.6 µM
same,TGI,SW-620 colon,> 100 µM
same,TGI,T-47D breast,> 100 µM
same,TGI,TK-10 renal,96.8 µM
same,TGI,U251 CNS,> 100 µM
same,TGI,UACC-257 melanoma,> 100 µM
same,TGI,UACC-62 melanoma,> 100 µM
same,TGI,UO-31 renal,> 100 µM
